{"source": "patent US4898815A", "about": "(priority 1983, dated 1990)", "test_system": "intestinal loop of C3H mice", "parameters": "species or system C3H mouse", "conditions": "mouse, in vivo", "data": [{"substance": "cholera toxin", "values": [{"measurement": "weight per cm of intestine (milligrams per centimeter of intestine)", "value": 126.7, "unit": "mg"}]}]}
